# From patent publication US10875861B1, “Therapeutic compounds” (Rutgers, The State University of New Jersey, priority 2017, dated 2020)
# Where a name gives a salt, the structure may show the parent alone.
# Key:
# BMI-1 protein = experiment: Inhibition of BMI-1 protein levels in U87 cells (Western blotting); type: cell-based; settings: read-out: IC50, inhibition of BMI-1 protein levels, U87 glioblastoma cell lysate, 72 hours
# Procedure: U87 cells were treated with DMSO or different concentrations of compound B1 for 72 hours. Cells were lysed in Cell Lysis Buffer (Cell Signaling, #9803) supplemented with Protease Inhibitor Cocktail (Sigma, #P8340), sonicated briefly while on ice and spun down for 30 minutes at 4° C., after which the supernatant was collected. For each sample, 2 uL of lysate was mixed well into 198 uL de-ionized water. Next, 10 uL of this diluted sample was added to a well in a 96 well plate in quadruplets and mixed with Protein Assay Dye Reagent Concentrate (Bio-Rad, #500-0006) (which was diluted 1:5 with water). BSA standards of 25 ng, 50 ng, 100 ng, 200 ng and 250 ng were also used to the plate and mixed with the reagent. The plate was read in a plate reader at 600 nm and samples were calibrated to the standards to determine the concentration of protein. Using the NuPAGE system (Invitrogen), 25 ug of protein was mixed with NuPAGE LDS 4× Sample Buffer (#NP0007), NuPAGE 10× Reducing Agent (#NP0004) and water, mixed well and heated at 96° C. for 15 minutes to denature the protein. […] Protein signals were detected using ECL Western Blotting Substrate (Pierce, #32106) and filmed.
# U87 cells were treated with DMSO or different concentrations of the inhibitors for 72 hours. […] The plate was read in a plate reader at 600 nm and samples were calibrated to the standards to determine the concentration of protein. […]
# normal astrocytes = experiment: Effects on normal astrocytes; type: cell-based
# Excerpt: (§1) BMI-1 inhibitors were developed by the Molecular Design and Synthesis laboratory, Rutgers Translational Sciences at Rutgers University, NJ, USA. […] (Generic name is PTC-209) was characterized among a screen for post-transcriptional inhibitors of BMI-1. Zebrafish embryo toxicology assays were used to select RU-A compounds with no embryonic toxicity in vivo (a surrogate assay for toxic effects on normal stem cells). […] Cells were counted using Beckman Coulter Vi-CELL Cell Viability Analyzer, and cell viability was confirmed by CellTiter-Glo Luminescent Cell Viability Assay (Promega, Madison, Wis., USA) according to standard protocols and analyzed with a Victor 2 plate reader (Wallac, Turku, Finland).
# U87 glioblastoma cells = experiment: Comparison of Example 3 and PTC-209 in U87 glioblastoma cells (cell viability); type: cell-based
# Excerpt: as §1
# Zebrafish embryo = Zebrafish embryo toxicology assay; type: in vivo
# Excerpt: as §1
# [1] = system: BMI-1 and ubiquitinated histone H2A in primary glioblastoma cells; experiment: Modulation / dynamics of BMI-1 and downstream targets in GBM cells (Western blotting); type: cell-based, human
# Procedure: Different GBM cells were treated with DMSO or different concentrations of the B compounds for 72 hours. Cells were lysed in Cell Lysis Buffer (Cell Signaling, #9803) supplemented with Protease Inhibitor Cocktail (Sigma, #P8340), spun down for 30 minutes at 4° C., after which the supernatant was collected at every time point indicated. Western blotting analysis was performed on all samples as described above. BMI-1 loss started at 6-12 h, coinciding with an upper shift and hyper-phosphorylation of BMI-1 at 12-24 h and complete depletion at 72 h.
# To study the compound dynamic activity against GBM spheres, GBMs were tested with exemplary compounds. Different GBM cells were treated with DMSO or different concentrations of the inhibitors for 72 hours. Cells were lysed in Cell Lysis Buffer (Cell Signaling, #9803) supplemented with Protease Inhibitor Cocktail (Sigma, #P8340), spun down for 30 minutes at 4° C., after which the supernatant was collected at every time point indicated. Western blotting analysis was performed on all samples as described above. […] BMI-1 loss started at 6-12 h, coinciding with an upper shift and hyper-phosphorylation of BMI-1 at 12-24 h and complete depletion at 72 h. […] This is expected since BMI-1 is known to suppress p21. BMI-1 inhibition could be reversed using phosphatase treatment, moreover, when proteasomal inhibitor is added to treated cells after 24 h, BMI-1 is locked in the phosphorylated state, therefore showing that the phosphorylation event precedes BMI-1 degradation. The phosphorylation was independent of p38 kinase activation, as when we added […], the p38 inhibitor to the cultured cells upon treatment with the BMI-1 inhibitor, the combined treatment could not reverse the effects of RU-A15 on BMI-1 inhibition.
# [2] = system: glioblastoma cancer stem cells; experiment: Sphere selectivity ratio EC50(U87)/EC50(spheres); type: cell-based, human; settings: ratio greater than controls (DMSO and Temozolomide)
# Procedure: The selectivity and potency in U87 cells were assessed vs primary GBM. Dose-response curves were generated in both spheres and monocultures and used to determine a sphere selectivity ratio (targeting Glioblastoma Initiating Cells), defined as EC50(U87)/EC50(spheres), for each compound.
# BMI-1 5'UTR = experiment: Luciferase plasmid containing the BMI-1 5'UTR with or without binding pocket; type: cell-based
# Procedure: Since translation initiation is dependent on RNA folding, the 3D folding of the BMI-1 5′UTR was examined. To identify sequences that fold into a target minimum and maximum free energy (MFE) secondary structure, inverse RNA folding of the BMI-1 5′UTR was performed using the mFold server. A highly probable, probability annotated group of secondary structures were identified, starting with the MFE, centroid energy structures and including fourteen other probabilities. […] In a luciferase plasmid containing the BMI-1 5′UTR, the sequences of the pocket region that contains the potential binding site was removed by cutting with compatible restriction enzymes and re-ligating the plasmid. The luciferase activity was examined with the luc plasmids or without the binding pocket upon treatment with the inhibitors. […] Thus, RU-A15/A16 engages with the BMI-1 UTR regulatory mechanisms.
# BMI-1 and αENaC mRNA = experiment: mRNA expression of BMI-1 and αENaC on concomitant treatment with cyclohexamide; type: cell-based; settings: RU-A15 100 nM, RU-A16 200 nM, concomitant with CHX
# Procedure: Next, to test if Examples 3 and 4 are selective for BMI-1 RNA, cells were concomitantly treated with RU-A15/16 (100 nM, 200 nM, respectively) and cyclohexamide (CHX), a general translational inhibitor, and analyzed mRNA expression of BMI-1 and the CHX-specific target epithelial sodium channel (αENaC).
# [3] = primary glioblastoma cells, Western blotting
smiles,measurement,setting,value
"COc1ccc(Nc2nc(-c3c(C)nc4ccccn34)cs2)cc1 [Example 3, N-(4-methoxyphenyl)-4-(2-methylimidaz[1,2-a]pyridin-3-yl)thiazol-2-aminehydrobromide]",IC50,BMI-1 protein,10 nM
same,effects on normal astrocytes,normal astrocytes,no significant effects
same,potency relative to PTC-209,U87 glioblastoma cells,one thousand-fold more potent than PTC-209
same,IC50,"U87 glioblastoma cells; Homo sapiens, U-87 MG, 72 hours",10 nM
same,effects in embryo assays,Zebrafish embryo,no significant effects
same,CDK inhibitor p21,[1]; GBM#46 and #50,induced upregulation of the CDK inhibitor p21
same,lowest concentration giving dose-dependent loss of BMI-1 protein expression,"[1]; GBM#50, 72 h",25 nM
same,BMI-1 protein levels,[1]; [3],inhibit BMI-1
same,WT p53 levels,[1]; [3],increase WT p53 levels
same,ubiquitin H2A,[1]; [3],inhibit ubiquitin H2A
same,selectivity for glioblastoma cancer stem cells (sphere selectivity ratio),[2],high selectivity for glioblastoma cancer stem cells
same,"normalized luc, BMI-1 5'UTR with intact binding pocket",BMI-1 5'UTR; intact minor groove potential binding pocket,significantly reduced normalized luc
same,"normalized luc, binding pocket sequences removed",BMI-1 5'UTR; pocket sequences removed,not when the pocket sequences were removed
same,BMI-1 mRNA expression,BMI-1 and αENaC mRNA,did not inhibit
same,αENaC mRNA expression,BMI-1 and αENaC mRNA,did not inhibit
